Molecules are shown by their SMILES.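 Five concentrations, 48 hours, 96-well plates. At the TGI there is no net growth.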

Among the test systems are M14 melanoma; A549 NSCLC; MOLT-4 leukemia; HOP-62 NSCLC; MCF7 breast; MALME-3M melanoma; 786-0 renal; MDA-MB-435; CAKI-1 renal; SNB-75 CNS.
Common to all, as to assay: growth of human tumour cells (NCI), 48 h

For the compound `Cn1c(=O)c2[nH]c(N/N=C3/SCC(=O)N3Cc3ccccc3)nc2n(C)c1=O`, the TGI is greater than 100 µM in the assay on M14 melanoma; greater than 100 µM in the assay with A549 NSCLC; greater than 100 µM with MOLT-4 leukemia; greater than 100 µM in the assay with HOP-62 NSCLC; 45.8 µM in the assay on MCF7 breast; greater than 100 µM with MALME-3M melanoma. In addition, the TGI in the assay with 786-0 renal is 88.4 µM; in the assay on MDA-MB-435 it was 50.1 µM; with CAKI-1 renal, greater than 100 µM.

In the case of `Clc1ccccc1C1=NN(c2ccccc2)C2c3cc(Br)ccc3OCC12` (stereo not drawn), the TGI in the assay on A549 NSCLC, with MOLT-4 leukemia, in the assay on HOP-62 NSCLC, in the assay on MALME-3M melanoma, in the assay on 786-0 renal and in the assay on SNB-75 CNS was greater than 100 µM each time.

Regarding `Cc1[nH]c(=O)nc(N/N=C/c2ccc(O)cc2)c1C(=O)Nc1ccc(Cl)cc1`, the TGI in the assay on M14 melanoma, with A549 NSCLC, in the assay with MOLT-4 leukemia, with HOP-62 NSCLC, with MALME-3M melanoma and in the assay with 786-0 renal was greater than 100 µM each time. Also, the TGI in the assay with SNB-75 CNS and in the assay with CAKI-1 renal was greater than 100 µM in each case.

In the case of `COc1cc2cc3c4c(cc(OC)c(OC)c4c2cc1OC)CCN3C(=O)OCCBr`, the TGI in the assay with A549 NSCLC, in the assay with MOLT-4 leukemia, in the assay on MALME-3M melanoma, in the assay with 786-0 renal, with SNB-75 CNS and in the assay on CAKI-1 renal was greater than 100 µM each time.

For `COc1cc(CC(=O)c2ccc3c(c2)OCO3)cc(OC)c1OC`, the TGI in the assay with M14 melanoma, with A549 NSCLC, with MOLT-4 leukemia, in the assay on HOP-62 NSCLC, with MALME-3M melanoma and in the assay on 786-0 renal was greater than 100 µM in each case. Also, the TGI with SNB-75 CNS and with CAKI-1 renal was greater than 100 µM throughout.

Turning to `CC(C)CC1c2[nH]c3ccccc3c2C[C@H]2C(=O)NC(COC(C)(C)C)C(=O)N12` (stereo partly drawn), the TGI in the assay with M14 melanoma is 46.7 µM; in the assay with A549 NSCLC, greater than 100 µM; in the assay with MOLT-4 leukemia it was 57.9 µM; in the assay with HOP-62 NSCLC, 79.3 µM; with MCF7 breast it was greater than 100 µM; in the assay on MALME-3M melanoma, 48.2 µM. Further, the TGI with 786-0 renal was determined as 98.5 µM; in the assay on MDA-MB-435 it was 39.9 µM; with CAKI-1 renal, 79.5 µM.

On to `Fc1nc(F)nc(-c2c3ccccc3c3n2CCS3)n1`, for which the TGI in the assay with M14 melanoma, in the assay on A549 NSCLC, with HOP-62 NSCLC, in the assay on MALME-3M melanoma, with 786-0 renal and in the assay on SNB-75 CNS was greater than 100 µM in each case. Further, the TGI in the assay with CAKI-1 renal was greater than 100 µM.

Consider `O=C(O)CCCc1nc2c(n1-c1ccccc1)C(=O)c1ccccc1C2=O`, for which the TGI in the assay on M14 melanoma was greater than 100 µM; in the assay with A549 NSCLC, greater than 100 µM; with MOLT-4 leukemia, greater than 100 µM; in the assay with MCF7 breast it was greater than 100 µM; in the assay with MALME-3M melanoma it was 51.8 µM; with 786-0 renal, greater than 100 µM. The TGI with SNB-75 CNS and in the assay with CAKI-1 renal was greater than 100 µM in each case.

With `Cc1cccc(N2CCN(S(=O)(=O)c3ccc(Cl)cc3)C2=N)c1C`, the TGI in the assay on M14 melanoma, in the assay with A549 NSCLC, in the assay with MOLT-4 leukemia, in the assay on MCF7 breast, in the assay with 786-0 renal and in the assay on SNB-75 CNS was greater than 100 µM each time. Also, the TGI in the assay with MDA-MB-435 and in the assay with CAKI-1 renal was greater than 100 µM each time.

For `COC(=O)C(=O)C(C(=O)C(=O)Nc1ccccc1C(N)=O)c1nc2ccc(C(=O)c3ccccc3)cc2[nH]c1=O` (stereo not drawn), the TGI in the assay with M14 melanoma, in the assay on A549 NSCLC, with MOLT-4 leukemia, in the assay with MALME-3M melanoma, with 786-0 renal and with CAKI-1 renal was greater than 100 µM each time.

On to `CCCCCCCCC(=O)NCCCNCCCNC(=O)CCCCCCCC`, for which the TGI in the assay on M14 melanoma turned out to be 4.15 µM; in the assay on A549 NSCLC, 29 µM; with MOLT-4 leukemia, 10.4 µM; with HOP-62 NSCLC it was 27.9 µM; in the assay with MALME-3M melanoma, 26.6 µM; in the assay on 786-0 renal it was 3.52 µM. This compound also gave a TGI in the assay with CAKI-1 renal of 27.7 µM.

For the compound `COc1ccccc1OC/C(N=Cc1ccncc1)=N/NC(=O)c1ccncc1`, the TGI with M14 melanoma, in the assay with A549 NSCLC, with MOLT-4 leukemia, with HOP-62 NSCLC, in the assay on MCF7 breast and with MALME-3M melanoma was greater than 100 µM in each case. Further, the TGI with 786-0 renal, with MDA-MB-435 and in the assay with CAKI-1 renal was greater than 100 µM throughout.

On to `COc1ccccc1NC(=O)C(=O)C1C(=O)Nc2ccccc2S1=O` (stereo not drawn), for which the TGI with M14 melanoma, with A549 NSCLC, with MOLT-4 leukemia, in the assay with HOP-62 NSCLC, with MALME-3M melanoma and in the assay on 786-0 renal was greater than 100 µM each time. The TGI in the assay with SNB-75 CNS and in the assay on CAKI-1 renal was greater than 100 µM in each case.

In the case of `CCOc1ccc(NC(=S)/N=C/C(C(=O)Nc2ccccc2C)=C(\C)O)cc1`, the TGI with M14 melanoma, in the assay on A549 NSCLC, with MOLT-4 leukemia, with HOP-62 NSCLC, in the assay on MCF7 breast and in the assay on 786-0 renal was greater than 100 µM each time. Also, the TGI in the assay on MDA-MB-435 and in the assay with CAKI-1 renal was greater than 100 µM in each case.

Take `CSc1nc2c(ncn2C2OCC(O)C(O)C2O)c(=O)[nH]1` (stereo not drawn): the TGI with A549 NSCLC, in the assay with MOLT-4 leukemia, in the assay on HOP-62 NSCLC, in the assay on MCF7 breast, in the assay on MALME-3M melanoma and with SNB-75 CNS was greater than 100 µM each time.

For `O=C(CCN1CCCCC1CO)Nc1ccc2c(c1)C(=O)c1ccc(NC(=O)CCN3CCCCC3CO)cc1C2=O` (stereo not drawn), the TGI was found to be 22.4 µM with M14 melanoma; 82.4 µM in the assay with A549 NSCLC; 35.7 µM in the assay on MOLT-4 leukemia; 64.2 µM with HOP-62 NSCLC; 18.8 µM with MALME-3M melanoma; 6.58 µM in the assay on 786-0 renal. This compound gave a TGI in the assay on CAKI-1 renal of 57.6 µM.

As for `c1ccc(COc2ncccc2C2SCCCS2)cc1`, the TGI in the assay on M14 melanoma, in the assay on A549 NSCLC, with HOP-62 NSCLC, in the assay with MCF7 breast, with MALME-3M melanoma and with 786-0 renal was greater than 100 µM each time. Also, the TGI in the assay with MDA-MB-435 and in the assay with CAKI-1 renal was greater than 100 µM each time.

The record behind these values is PubChem BioAssay (NCI).
